Results: US9896476B1, “Glycyrrhetic acid derivatives” (KING SAUD UNIVERSITY, priority 2017, dated 2018)
Where “and” joins values, the source holds several entries; their conditions need not be identical. Identical values can stand only once.

How the values were obtained:
[1] = system: cotton pellet-induced granuloma; assay: Cotton pellet-induced granuloma bioassay; assay type: in vivo, rat; conditions: for ED50: rat cotton pellet granuloma; for The anti-inflammatory activity ED50: rat, compound-impregnated cotton pellets implanted s.c., 7 days, dose response 4, 7, 10 and 15 μmol
Description: An animal model cotton pellet-induced granuloma bioassay was used to determine ED50 for the compounds (2)-(4). Adult male Sprague Dawley rats (120-140 g), were used in the cotton pellet-induced granuloma bioassays. The rats were acclimated one week prior to use and allowed unlimited access to standard rat chow and water. Prior to the start of the experiment, the animals were randomly divided into groups of six rats each. Cotton pellet (35±1 mg) cut from dental rolls were impregnated with 0.2 ml (containing 0.01 mmol) of a solution of each of compounds (2)-(4) in chloroform, and the solvent was allowed to evaporate. Each cotton pellet was subsequently injected with 0.2 ml of an aqueous solution of antibiotics (1 mg penicillin G and 1.3 mg dihydrostreptomycin/ml). Two pellets were implanted subcutaneously, one in each axilla of the rat, under mild general anesthesia. One group of animals received the standard reference pharmaceutical indomethacin and the antibiotics at the same level. Pellets containing only the antibiotics were similarly implanted in control rats. Seven days later, the animals were sacrificed and the two cotton pellets, with adhering granulomas, were removed, dried for 48 h at 60° C. and weighed. The increment in dry weight (difference between the initial and final weight) was taken as a measure of the dry weight of granuloma±SEM. The dry weight of granuloma and the percentage reduction in dry weight of granuloma relative to the respective control value were calculated for all rats. The ED50 values were determined through dose response curves using doses of 4, 7, 10 and 15 μmol for each compound.

[2] = system: carrageenan-induced rat paw edema; assay: Carrageenan-induced rat paw edema; assay type: in vivo; conditions: for % Protection / Increase in paw edema (ml) ± SEM: 10 μmol/kg s.c. 1 h prior to carrageenan; for % Protection: 4 h, relative to DMSO control; for Increase in paw edema (ml) ± SEM: increase between 0 h and 4 h; for Activity relative to indomethacin: 10 μmol/kg s.c., indomethacin = 100
Description: Male albino rats weighing 120-150 g were used in these experiments. The rats were kept in an animal house under standard conditions of light and temperature with free access to food and water. The animals were randomly divided into groups of six rats each for each experimental and control group. The paw edema was induced by subplantar injection of […] of 2% carrageenan solution in saline (0.9%). […] A control group was injected with DMSO only. The volume of paw edema (ml) was determined by means of a plethysmometer immediately after carrageenan injection and 4 h later. The increase in paw volume between 0 h and 4 h after carrageenan injection was measured. The percentage protection against inflammation was calculated according to the following formula: % Protection=100%×(Vc−Vd)/Vc where Vc is the 4 h increase in paw volume in the control animals (control) and Vd is the 4 h increase in paw volume in the test animals. Data are expressed as the mean±SEM. Significant difference between the control and test groups was determined using Student's t-test and P values. The difference in results was considered significant when P<0.001.

[3] = target: T1, Human COX-2 (Homo sapiens, UniProt P35354); assay: Human COX-2 enzymatic assay; assay type: biochemical; conditions: for IC50: 5 min pre-incubation, 45 min incubation with [14C]-arachidonic acid at 24° C.; for Approximate selectivity ratio COX-1/COX-2: ratio of COX-1 IC50 to COX-2 IC50
T1 sequence (P35354 18-604): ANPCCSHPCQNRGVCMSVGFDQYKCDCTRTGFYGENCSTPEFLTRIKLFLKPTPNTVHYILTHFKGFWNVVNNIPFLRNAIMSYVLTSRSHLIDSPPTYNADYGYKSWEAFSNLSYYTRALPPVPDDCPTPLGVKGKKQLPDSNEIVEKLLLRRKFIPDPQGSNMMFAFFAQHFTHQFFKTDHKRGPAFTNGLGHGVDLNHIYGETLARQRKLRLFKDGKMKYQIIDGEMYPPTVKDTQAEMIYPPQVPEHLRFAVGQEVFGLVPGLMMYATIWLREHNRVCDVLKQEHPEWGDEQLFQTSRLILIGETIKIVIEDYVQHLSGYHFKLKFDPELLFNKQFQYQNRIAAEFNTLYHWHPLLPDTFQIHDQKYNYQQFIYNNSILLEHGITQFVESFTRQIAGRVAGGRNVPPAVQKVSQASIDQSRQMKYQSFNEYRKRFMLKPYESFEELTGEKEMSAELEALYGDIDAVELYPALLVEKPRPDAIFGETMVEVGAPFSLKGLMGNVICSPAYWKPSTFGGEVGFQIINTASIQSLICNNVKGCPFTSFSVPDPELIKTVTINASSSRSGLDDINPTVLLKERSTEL
Description: (§1) Human COX-1 and COX-2 activities were determined as described by Wakitani et al. 0.2 ml of 100 mmol Tris HCl buffer (pH 8) containing hematin (2 mmol) and tryptophan (5 mmol) as cofactors. The reaction mixture was pre-incubated with each test compound individually for 5 min at 24° C. [14C]-arachidonic acid (100.00 dpm, 30 mmol) was added to the mixture and then incubated for 2 min (for COX-1) or 45 min (for COX-2) at 24° C. The reaction was stopped by the addition of 400 μl of a solution composed of Et2O/MeOH/1 M citric acid (30:4:1, v/v/v). After centrifugation of the mixture at 1700×/g for 5 min at 4° C., 50 μl of the upper phase was applied to a thin layer chromatography plate. Thin layer chromatography was performed at 4° C. with solvent system of Et2O/MeOH/AcOH (90:2:0.1, v/v/v). Enzyme activity was calculated from the percent conversion of arachidonic acid to PGH2 and its de-composition products, using radiometric photographic system.

[4] = target: Human COX-1 (Homo sapiens, UniProt P23219); assay: Human COX-1 enzymatic assay; assay type: biochemical; conditions: 5 min pre-incubation, 2 min incubation with [14C]-arachidonic acid at 24° C.
Sequence of Human COX-1 (P23219 24-599): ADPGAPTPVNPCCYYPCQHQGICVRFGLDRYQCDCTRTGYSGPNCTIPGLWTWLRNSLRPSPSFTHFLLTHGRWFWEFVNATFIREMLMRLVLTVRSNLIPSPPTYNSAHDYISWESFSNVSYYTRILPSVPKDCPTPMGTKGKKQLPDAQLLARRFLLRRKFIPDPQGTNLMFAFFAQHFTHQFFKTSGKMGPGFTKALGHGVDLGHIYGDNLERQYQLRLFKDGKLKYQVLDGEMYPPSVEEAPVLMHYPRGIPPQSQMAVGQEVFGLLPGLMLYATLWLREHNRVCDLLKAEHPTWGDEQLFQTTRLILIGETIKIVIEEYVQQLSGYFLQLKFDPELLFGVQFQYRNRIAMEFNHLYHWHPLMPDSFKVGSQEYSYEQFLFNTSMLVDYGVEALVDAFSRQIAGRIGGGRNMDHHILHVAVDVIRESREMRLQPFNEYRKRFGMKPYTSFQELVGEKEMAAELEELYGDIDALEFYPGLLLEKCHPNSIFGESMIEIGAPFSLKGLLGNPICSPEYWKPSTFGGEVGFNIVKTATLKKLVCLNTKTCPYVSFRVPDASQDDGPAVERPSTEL
Description: as §1

[5] = Acute toxicity in mice; conditions: mouse, in vivo; male mice; route for the LD50 not stated (oral and intraperitoneal tests described)
Description: […]. The animals were divided into groups of six mice each. The compounds were given orally, suspended in 1% gum acacia, in doses of 1, 10, 100, 200, 250, 300 mg/kg.
The mortality percentage in each group was recorded after 24 h.
Additionally, the test compounds were investigated for their parenteral acute toxicity in groups of six mice each as reported earlier. The compounds, or their vehicle propylene glycol (control), were given by intraperitoneal injection in doses of 10, 25, 50, 75, 100 mg/kg. The percentage survival was followed up to seven days.

[6] = system: pyloric ligation ulcer; assay: Pyloric ligation ulcer model (antiulcer activity); assay type: in vivo, rat; conditions: rats, oral 30 min prior to pyloric ligation, 4 h, compounds 100 mg/kg, omeprazole 40 mg/kg; for Free acid / Total acid: gastric contents
Description: Pyloric ligation ulcer models were used to test each of compounds (2)-(4) for antiulcer activity. Male rats (140 and 175 g) were selected for pyloric ligation ulcer model experiments and divided into eleven groups consisting of six animals each. The rats were fasted overnight. One group received normal saline 2 ml/kg (negative control), the second group received omeprazole 40 mg/kg (positive control) and the other groups received each of the compounds (2)-(4) (100 mg/kg) by oral route 30 min prior to pyloric ligation. Animals were sacrificed 4 h later and their stomachs were opened to collect the gastric contents. The gastric contents were centrifuged at 1000 rpm for 10 min. One ml of the supernatant liquid was pipetted out and diluted to a total volume of 10 ml with distilled water. The solution was titrated against 0.01 N sodium hydroxide solution using Topfer's reagent to indicate the end point when the solution turned […]. The volume of NaOH consumed was taken as corresponding to the free acidity. Titration was further continued until the solution regained pink color. The volume of sodium hydroxide solution required to achieve the pink color was noted and total acidity calculated. After opening the stomach, the ulcer index was calculated.
The results are expressed as mean±SEM. The difference between groups was determined using the one way analysis of variance (ANOVA) followed by Dunnett's test. P<0.05 was considered significant.

[7] = target: T2, H+/K+-ATPase (Sus scrofa, UniProt P19156); assay: H+/K+-ATPase (proton pump) inhibition in membrane vesicles of stomach mucosa; assay type: biochemical; conditions: pig gastric membrane vesicles, 37° C.; pre-incubation pH (6.0 or 7.4) not given
T2 construct: Membrane vesicles containing H^+/K^+-ATPase were prepared from pig stomachs; from tissue; host or cells: pig gastric mucosa membrane vesicles
T2 sequence (P19156 2-1034 limits assumed): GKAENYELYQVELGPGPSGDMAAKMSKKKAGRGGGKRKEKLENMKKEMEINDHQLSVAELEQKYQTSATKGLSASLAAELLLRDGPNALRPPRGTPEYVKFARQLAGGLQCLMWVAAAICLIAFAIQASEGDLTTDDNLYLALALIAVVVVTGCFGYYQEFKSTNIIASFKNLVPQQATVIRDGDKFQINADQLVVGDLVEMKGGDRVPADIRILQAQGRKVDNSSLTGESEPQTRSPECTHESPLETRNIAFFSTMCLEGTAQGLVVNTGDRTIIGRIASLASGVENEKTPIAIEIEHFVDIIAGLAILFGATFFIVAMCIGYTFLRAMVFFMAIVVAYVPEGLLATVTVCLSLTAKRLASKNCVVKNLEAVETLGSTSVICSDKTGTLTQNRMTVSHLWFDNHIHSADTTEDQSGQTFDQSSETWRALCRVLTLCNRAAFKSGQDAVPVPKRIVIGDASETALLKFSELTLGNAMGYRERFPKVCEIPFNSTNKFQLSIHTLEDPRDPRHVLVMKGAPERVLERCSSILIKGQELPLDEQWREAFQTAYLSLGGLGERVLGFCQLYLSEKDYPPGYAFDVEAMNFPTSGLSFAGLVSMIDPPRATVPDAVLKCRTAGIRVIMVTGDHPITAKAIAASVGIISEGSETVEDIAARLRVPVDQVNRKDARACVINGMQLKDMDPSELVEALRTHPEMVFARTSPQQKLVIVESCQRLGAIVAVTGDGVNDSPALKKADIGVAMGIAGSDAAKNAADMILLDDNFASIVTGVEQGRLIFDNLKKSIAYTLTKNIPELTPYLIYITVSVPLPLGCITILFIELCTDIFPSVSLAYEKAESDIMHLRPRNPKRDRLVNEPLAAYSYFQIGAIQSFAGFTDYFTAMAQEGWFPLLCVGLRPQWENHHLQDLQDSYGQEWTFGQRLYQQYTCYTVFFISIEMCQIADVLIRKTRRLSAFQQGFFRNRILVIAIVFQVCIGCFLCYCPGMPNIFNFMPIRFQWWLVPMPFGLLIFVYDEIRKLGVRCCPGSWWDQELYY
T2 sequence (P18434 whole entry partner): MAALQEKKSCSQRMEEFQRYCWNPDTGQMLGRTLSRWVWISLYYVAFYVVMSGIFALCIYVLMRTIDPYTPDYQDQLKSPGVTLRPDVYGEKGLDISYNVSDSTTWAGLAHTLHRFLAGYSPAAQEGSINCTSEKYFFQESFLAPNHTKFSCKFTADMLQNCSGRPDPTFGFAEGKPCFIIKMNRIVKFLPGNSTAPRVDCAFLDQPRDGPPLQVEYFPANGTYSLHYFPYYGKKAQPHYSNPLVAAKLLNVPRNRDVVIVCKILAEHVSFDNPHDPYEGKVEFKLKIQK
Description: Membrane vesicles containing H^+/K^+-ATPase were prepared from pig stomachs obtained from a local slaughter house. Pigs were fasted overnight before slaughter. The gastric mucosa of four stomachs was rinsed with cold saturated NaCl solution for 3-5 min. The superficial cells, cell debris plus the mucus were wiped off with the edge of a plastic ruler and paper towels. The mucosa was scraped off. About 100 g of scrapings were divided into portions of 10 g and homogenized in 0.25 M sucrose with seven strokes in a Potter-Elvehjem Teflon-glass homogenizer. […] The pellet was discarded. The supernatant was centrifuged at 75,000 g for 1 h. The resulting microsomal pellet was homogenized in 30 ml 0.25 M sucrose. Aliquots of 15 ml were transferred to 100 ml centrifuge tubes and layered on top of step gradients, from the bottom comprising 25 ml 37% sucrose (w/v) and 45 ml 7.5% Ficoll (w/v) in 0.25 M sucrose. The tubes were centrifuged at 75,000 g for 1 h in a 6×100 ml ME angle rotor at 4° C. The gradient was then fractionated by pumping Fluoroinert 70 through narrow tubing in a fractionating cap down to the bottom of the tube. Fractions are collected from top through a center hole in the fractionating cap. The yield of vesicles in a typical preparation is about 50-75 mg protein. In order to maintain a stable vesicular structure for a long period of time, the vesicles were frozen at −70° C. under nitrogen, and could then be kept for several months without decrease of H^+/K^+-ATPase activity. The ATPase activity was measured at 37° C. as the release of inorganic phosphate (Pi) from ATP. […] Then, the medium of pH 6.0 is adjusted with HEPES/Tris buffer to pH 7.4. The enzyme reaction is started by addition of nigericin and Tris/ATP. The total reaction volume is 1 ml, containing 20 μg vesicular protein, 4 mM MgCl2, 10 mM KCl, 20 μM nigericin, 2 mM Tris-ATP, 10 mM HEPES and additionally 2 mM Pipes for the pre-incubation medium at pH 6.0. After […] at 37° C., the reaction is stopped by the addition of […] of 50% trichloroacetic acid. The denatured protein was spun down and the Pi content is determined according to Le Bel et al. (1978) and based on the reduction of a phosphomolybdate complex by p-methyl-aminophenol sulfate in a copper acetate buffer or according to Carter and Karl (1982) based on the reaction of phosphomolybdate with the basic dye malachite green. […] IC50 values of the test compound at different pH values were compared with IC50 values of the standard. Statistical differences (P<0.05) were calculated by Student's t-test.

SMILES	ED50 [1]	The anti-inflammatory activity ED50 [1]	% Protection [2]	Increase in paw edema (ml) ± SEM [2]	Activity relative to indomethacin [2]	IC50 [3]	Approximate selectivity ratio COX-1/COX-2 [3]	IC50 [4]	LD50 [5]	Free acid [6]	Total acid [6]	Ulcer Index [6]	IC50 [7]	The anti-inflammatory activity ED50 ([1]; listed as indomethacin)
CC1(C(=O)O)CCC2(C)CCC3(C)C(=CC(=O)C4C5(C)C/C(=C\c6ccc(F)cc6)C(=O)C(C)(C)C5CCC43C)C2C1 (stereo not drawn) [Compound 2, 2-(4-fluorobenzylidene)-3,11-dioxo-18β-olean-12-en-30-oic acid]	1.52 µmol	1.52 ± 0.0019 µmol	98.40%	0.0157 ± 0.0004 mL	132.09	0.109 µM	2733.94	298 µM	3100 mg/kg	0.09 mEq/L	0.09 mEq/L	1.16	11.46 ± 0.009 µM	–
Cn1nc2c(c1-c1ccc(F)cc1)CC1(C)C(CCC3(C)C1C(=O)C=C1C4CC(C)(C(=O)O)CCC4(C)CCC13C)C2(C)C (stereo not drawn) [Compound 3, 2-(4-fluorobenzylidene)-3,11-dioxo-18β-olean[3,2-c]-1′H-5′-(4-fluorophenyl)-N-methylpyrazoline-12-en-30-oic acid]	1.47 µmol	1.47 ± 0.0021 µmol	98.49%	0.0148 ± 0.0003 mL	132.21	0.091 µM	3438.57 and 3428.57	312 µM	3360 mg/kg	0.08 mEq/L	0.08 mEq/L	1.12	10.03 ± 0.0072 µM	–
COc1ccc2c(c1)c(CC(=O)O)c(C)n2C(=O)c1ccc(Cl)cc1 [Indomethacin, reference compound]	–	9.568 ± 0.098 µmol	–	0.25 ± 0.0005 mL	–	–	–	–	–	–	–	–	–	9.568 µmol
COc1ccc2[nH]c([S+]([O-])Cc3ncc(C)c(OC)c3C)nc2c1 (stereo not shown) [Omeprazole, reference compound]	–	–	–	–	–	–	–	–	–	0.43 mEq/L	0.33 mEq/L	3.31	66.1 ± 1.11 µM	–
Cn1nc2c(c1-c1ccc(F)cc1)CC1(C)C(CCC3(C)C1C(=O)C=C1C4CC5(C)CC(OC5=O)C4(C)CCC13C)C2(C)C (stereo not drawn) [Compound 4, 2-(4-fluorobenzylidene)-3,11-dioxo-18β-olean[3,2-c]-1′H-5′-(4-fluorophenyl)-N-methylpyrazoline-12-en-30-oic acid (30→22β) lactone]	1.35 µmol	1.35 ± 0.0034 µmol	98.77%	0.0121 ± 0.0002 mL	132.58	0.087 µM	3965.52	345 µM	3460 mg/kg	0.06 mEq/L	0.06 mEq/L	1.04	9.21 ± 0.0076 µM	–
